How the values were obtained:
DIO mice [1] = assay: Efficacy in diabetes/obesity-model mice (DIO mice): blood sugar, body weight, fat, triglyceride; format: in vivo, mouse; conditions: for Weight of the fat around the mouse testicles / Blood sugar / Increase in body weight / Triglyceride: DIO mouse; for Weight of the fat around the mouse testicles: after ITT (day 27); for Blood sugar / Increase in body weight / Triglyceride: day 26; for Triglyceride: plasma
Protocol: C57BL/6J mice grown on a solid feeding stuff containing 60% fat (D12492, Research Diets) since 4 weeks of age, (male, Charles River Laboratories, Japan, 13 weeks of age) were purchased and mice of 16 weeks of age grown on D12492 since the day of arrival were used. C57BL/6J mice of 16 weeks of age grown on normal food since the day of arrival were used in the normal group. The compound of Example 1 was diluted to 2 mg/mL or 0.6 mg/mL, as it is dissolved in physiological saline, and the solution was administered subcutaneously in an amount of 5 mL/kg, by using a disposable syringe (Terumo) and a 26G injection needle (Terumo). Physiological saline was administered in the vehicle group. The solution was administered once a day from the day of first administration (day 0) to day 26. The body weight was determined on day 26; the tail vein was cut open with a knife (disposable scalpel, FEATHER); and the blood sugar was determined with a simplified blood sugar analyzer (MediSense Precision Xceed, Abotto Japan).
(§1) The blood was collected (approximately 70 μL) from the same site by using a heparin-treated capillary (Hematokrit Kapilaren, 75 μL, […] LABORGERATE) and the collected blood was centrifuged (12,000 rpm, 7 min, 4° C.) in a hematocrit centrifuge (KUBOTA3100, Kubota Corp.) and the plasma was stored, as it is frozen in an Eppendorf tube, until it is used for measurement of triglyceride. The triglyceride measurement was carried out by using Triglyceride E-Test Wako (Wako Pure Chemical Industries). Four μL of the sample was added to 250 μL of the coloring liquid, after reaction at 37° C. for 1 hour, and the absorbance (595 nm) of the mixture was determined by using a microplate reader (Bio-Rad, Model 680). Separately, insulin tolerance test (ITT) was performed on day 27.
The insulin level was measured by using an insulin measurement kit (Lebis Insulin Mouse U, Shibayagi). Finally, HOMA-IR was also calculated from the values of fasting blood sugar and fasting insulin. The weight of the fat around the mouse testicles was also determined after measurement of ITT. Statistical treatment of the individual data obtained was carried out by a two-group test (unpaired t-test) or a multiplex comparison test (parametric Williams test).

DIO mice [2] = assay: Insulin tolerance test (ITT) in DIO mice; format: in vivo, mouse; conditions: day 27, insulin 0.3 unit/kg i.p., FIG. 1
Protocol: as §1
The mouse was left non-feeded in a fasting cage after drug administration on day 26. In the morning of the day of ITT (day 27), the fasting blood sugar was determined by a method identical with that used for blood sugar measurement on day 26. The blood sugar was measured once again in the afternoon of the same day; an insulin solution was administered intraperitoneally (0.3 unit/5 mL/kg) immediately after then; and the blood sugar was measured 30, 60, 120 and 180 minutes after insulin administration since then. […]
The insulin level was measured by using an insulin measurement kit (Lebis Insulin Mouse U, Shibayagi). […]

Which blood sugar-reducing effect (DIO mice [1]; DIO mice) does the source give for `COc1cc(CN[C@@H](C)[C@H](O)c2ccc(O)c(NS(C)(=O)=O)c2)cc(OC)c1` [Example 1, N-(5-((1R,2S)-2-(3,5-Dimethoxybenzylamino)-1-hydroxypropyl)-2-hydroxyphenyl)methanesulfonamide] here?
The blood sugar-reducing effect was “significant blood sugar-reducing effect”.

And the “increase in body weight versus vehicle group” value (DIO mice [1]; DIO mice)?
Its value is “Significant suppression of increase in body weight”.

What about the “plasma triglyceride (TG) versus vehicle group” value (DIO mice [1]; DIO mice) of the same compound?
Its value is “declined statistically significantly”.

What about the “weight of the fat around the mouse testicles versus vehicle group” value (DIO mice [1]; DIO mice) of the same compound?
Its value is “declined significantly”.

What about the “Weight of the fat around the mouse testicles” value (DIO mice [1]; 3 mg/kg s.c. once a day) of the same compound?
Its value is 2.6 ± 0.1 g.

And the Blood sugar (DIO mice [1]; 3 mg/kg s.c. once a day)?
Its Blood sugar is 177 ± 9 mg/dL.

And the “Increase in body weight” value (DIO mice [1]; 3 mg/kg s.c. once a day)?
The value was 3.5 ± 0.6 g.

And the “Weight of the fat around the mouse testicles” value (DIO mice [1]; 10 mg/kg s.c. once a day)?
Its value is 2.3 ± 0.1 g.

And the Blood sugar (DIO mice [1]; 10 mg/kg s.c. once a day)?
The Blood sugar was 168 ± 8 mg/dL.

What about the “Increase in body weight” value (DIO mice [1]; 10 mg/kg s.c. once a day) of the same compound?
Its value is 2.1 ± 0.5 g.

And the Triglyceride (DIO mice [1]; 3 mg/kg s.c. once a day)?
The Triglyceride was 162 ± 14 mg/dL.

And the Triglyceride (DIO mice [1]; 10 mg/kg s.c. once a day)?
The Triglyceride was 129 ± 9 mg/dL.

What about the “blood sugar after insulin administration (ITT) versus vehicle group” value (DIO mice [2]) of the same compound?
Its value is “declined statistically significantly”.

Source: patent publication US8198330B2, “Therapeutic or prophylactic agent for diabetes, obesity, dyslipidemia or metabolic syndrome comprising benzylamine derivative or pharmaceutically acceptable acid addition salt thereof” (Toray Industries, Inc., priority 2008, dated 2012)
